According to paper PMC9007972, “Structural and biochemical evidence that ATP inhibits the cancer biomarker human aldehyde dehydrogenase 1A3” (Communications Biology, 2022):

What was measured:
ALDH1A3 [1] = target: T1, ALDH1A3 (Homo sapiens, UniProt P47895); experiment: dehydrogenase activity with hexanal, […] ADP (remaining activity); type: biochemical; parameters: His6-tagged, pET-30 Xa/LIC; conditions: read-out: % remaining activity at 0.5 mM
T1 sequence (P47895 2-512): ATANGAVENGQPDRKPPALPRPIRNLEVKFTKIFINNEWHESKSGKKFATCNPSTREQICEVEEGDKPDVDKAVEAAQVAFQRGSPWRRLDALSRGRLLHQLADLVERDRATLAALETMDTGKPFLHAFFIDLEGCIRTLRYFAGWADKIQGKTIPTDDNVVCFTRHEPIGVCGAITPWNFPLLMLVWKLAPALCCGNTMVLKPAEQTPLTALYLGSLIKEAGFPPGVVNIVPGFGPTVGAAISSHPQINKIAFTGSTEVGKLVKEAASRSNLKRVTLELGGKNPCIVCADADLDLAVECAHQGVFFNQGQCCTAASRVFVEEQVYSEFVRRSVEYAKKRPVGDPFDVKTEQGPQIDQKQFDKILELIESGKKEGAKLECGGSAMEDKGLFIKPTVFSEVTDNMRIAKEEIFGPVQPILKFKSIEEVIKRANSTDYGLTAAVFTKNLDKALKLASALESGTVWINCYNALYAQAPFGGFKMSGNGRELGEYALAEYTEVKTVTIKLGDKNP

ALDH3A1 = target: T2, ALDH3A1 (Homo sapiens, UniProt P30838); experiment: fluorimetric dehydrogenase assay with hexanal, […] ATP; type: biochemical; conditions: read-out: % remaining activity at 2 mM
T2 construct: His6-tagged, pET-30 Xa/LIC
T2 sequence (P30838 2-453): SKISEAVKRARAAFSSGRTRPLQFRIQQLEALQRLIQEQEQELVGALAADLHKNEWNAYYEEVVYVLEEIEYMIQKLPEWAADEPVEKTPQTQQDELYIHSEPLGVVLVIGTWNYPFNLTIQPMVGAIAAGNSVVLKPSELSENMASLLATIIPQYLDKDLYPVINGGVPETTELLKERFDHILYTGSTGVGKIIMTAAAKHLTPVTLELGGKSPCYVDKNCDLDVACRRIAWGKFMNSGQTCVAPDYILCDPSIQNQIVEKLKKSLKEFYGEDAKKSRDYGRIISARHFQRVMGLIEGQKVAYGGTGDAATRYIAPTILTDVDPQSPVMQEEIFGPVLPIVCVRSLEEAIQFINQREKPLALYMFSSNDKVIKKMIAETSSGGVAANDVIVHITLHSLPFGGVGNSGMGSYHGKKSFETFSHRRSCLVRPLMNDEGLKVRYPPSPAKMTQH

ALDH1A2 = target: T3, ALDH1A2 (Homo sapiens, UniProt O94788); experiment: as above; type: biochemical; conditions: read-out: % remaining activity at 2 mM
T3 construct: His6-tagged, pET-30 Xa/LIC
T3 sequence (O94788 1-518): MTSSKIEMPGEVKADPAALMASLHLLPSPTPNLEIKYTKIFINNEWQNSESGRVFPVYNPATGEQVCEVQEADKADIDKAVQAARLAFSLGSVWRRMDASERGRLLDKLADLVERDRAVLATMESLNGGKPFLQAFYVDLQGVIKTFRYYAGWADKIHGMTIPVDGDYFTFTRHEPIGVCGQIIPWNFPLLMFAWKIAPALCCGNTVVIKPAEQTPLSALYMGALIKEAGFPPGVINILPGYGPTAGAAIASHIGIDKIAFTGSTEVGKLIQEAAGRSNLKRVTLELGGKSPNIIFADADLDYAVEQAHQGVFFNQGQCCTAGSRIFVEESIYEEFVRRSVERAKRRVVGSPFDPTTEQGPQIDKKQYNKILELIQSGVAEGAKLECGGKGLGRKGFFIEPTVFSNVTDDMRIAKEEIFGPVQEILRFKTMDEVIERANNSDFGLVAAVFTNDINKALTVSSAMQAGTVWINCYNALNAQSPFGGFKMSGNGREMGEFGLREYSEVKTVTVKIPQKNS

ALDH1A1 = target: T4, ALDH1A1 (Homo sapiens, UniProt P00352); experiment: as above; type: biochemical; conditions: read-out: % remaining activity at 2 mM
T4 construct: His6-tagged, pET-30 Xa/LIC
T4 sequence (P00352 2-501): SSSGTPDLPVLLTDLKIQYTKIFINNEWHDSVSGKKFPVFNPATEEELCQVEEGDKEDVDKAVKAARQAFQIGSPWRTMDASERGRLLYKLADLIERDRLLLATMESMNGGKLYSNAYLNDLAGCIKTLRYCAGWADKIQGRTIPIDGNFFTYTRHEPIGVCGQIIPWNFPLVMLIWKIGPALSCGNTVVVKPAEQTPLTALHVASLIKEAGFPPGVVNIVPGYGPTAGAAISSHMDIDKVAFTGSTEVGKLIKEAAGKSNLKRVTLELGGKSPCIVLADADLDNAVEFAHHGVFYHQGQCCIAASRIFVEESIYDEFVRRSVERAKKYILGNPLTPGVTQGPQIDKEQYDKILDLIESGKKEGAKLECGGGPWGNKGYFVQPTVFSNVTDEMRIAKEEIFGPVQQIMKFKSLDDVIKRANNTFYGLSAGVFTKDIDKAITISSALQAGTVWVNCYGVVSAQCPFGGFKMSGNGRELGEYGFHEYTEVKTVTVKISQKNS

ALDH1A3 [2] = target: T1, ALDH1A3; experiment: biochemical
ALDH1A3 [3] = target: T1, ALDH1A3; experiment: X-ray crystal structure ([…] Å); Km from enzyme kinetics without Mg2+; type: biochemical; parameters: His6-tagged, pET-30 Xa/LIC

Structure (SMILES): Nc1ncnc2c1ncn2[C@@H]1O[C@H](COP(=O)(O)OP(=O)(O)O)[C@@H](O)[C@H]1O [ADP]
- remaining activity at 500 µM (ALDH1A3 [1]): 56 ± 4%

Structure (SMILES): Nc1ncnc2c1ncn2[C@@H]1O[C@H](CO[P@@](=O)(O)O[P@](=O)(O)OP(=O)(O)O)[C@@H](O)[C@H]1O [ATP]
- remaining activity at 2000 µM (ALDH3A1): 25 ± 1%
- remaining activity at 2000 µM (ALDH1A2): 68 ± 2%
- remaining activity at 2000 µM (ALDH1A1): 43 ± 1%
- Ki (ALDH1A3 [2]): 480 ± 80 µM

Structure (SMILES): NC(=O)c1ccc[n+]([C@@H]2O[C@H](COP(=O)([O-])OP(=O)(O)OC[C@H]3O[C@@H](n4cnc5c(N)ncnc54)[C@H](O)[C@@H]3O)[C@@H](O)[C@H]2O)c1 [NAD^+]
- Km (ALDH1A3 [3]): 24 ± 2 µM
